The values below come from patent US20240300980A1, “HETEROCYCLIC COMPOUNDS AS KRAS INHIBITOR, AND PREPARATION THEREFOR AND USE THEREOF IN TREATMENT” (SHANGHAI KECHOW PHARMA, INC., priority 2021, published 2024).

The subject of one experiment is AGS cells (KRAS^G12D). Kind of experiment: Detection of cell proliferation in vitro by MTT/MTS method (cell activity experiment). The format is cell-based. Conditions: AGS cells; MTT/MTS; 3 days of drug treatment; read-out: AGS IC50. An outline of the steps:
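After 3-day compound exposure (final DMSO 0.5%), viability of AGS (KRAS G12D) cells, plated 1000/well one day before dosing, was measured at 490 nm following 4 h MTT or MTS incubation. IC50 was fitted from dose–effect curves relative to DMSO-treated wells.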
In general terms: Formazan colour is commonly taken as a measure of viable cells.
Broadly, the IC50 is the concentration that gives 50% inhibition. In the case of `CC1CCCc2cc(O)cc(-c3ccc4c(N5C[C@H]6CC[C@@H](C5)N6)nc(OC[C@@]56CCCN5C[C@H](F)C6)nc4c3F)c21` (single isomer, unassigned) [Example 288], the IC50 was found to be 7.2 nM.

The experiment is the same for the next values; noted with them: Homo sapiens, AGS, 72 h, AGS cells; MTT/MTS; 3 days of drug treatment; read-out: AGS IC50.
Turning to `C#Cc1c(F)ccc2cc(O)cc(-c3ncc4c(C5C[C@H]6CC[C@@H](C5)N6)nc(OC[C@@]56CCCN5C[C@H](F)C6)nc4c3F)c12` (stereo partly drawn) [Example 79, 4-(4-((1R,5S)-8-azabicyclo[3.2.1]octan-3-yl)-8-fluoro-2-(((2R,7aS)-2-fluorotetrahydro-1H-pyrrolizin-7a(5H)-yl)methoxy)pyrido[4,3-d]pyrimidin-7-yl)-5-ethynyl-6-fluoronaphthalen-2-ol], the concentration for half-maximal inhibition (IC50) is above 2500 nM. The same measure, in the same setting: to `Oc1cc2c(c(-c3ncc4c(N5C[C@H]6CC[C@@H](C5)N6)nc(OC[C@@]56CCCN5C[C@H](F)C6)nc4c3F)c1)C(F)CCC2` (stereo partly drawn) [Example 272, 4-(4-((1R,5S)-3,8-diazabicyclo[3.2.1]octan-3-yl)-8-fluoro-2-(((2R,7aS)-2-fluorotetrahydro-1H-pyrrolizin-7a(5H)-yl)methoxy)pyrido[4,3-d]pyrimidin-7-yl)-5-fluoro-5,6,7,8-tetrahydronaphthalen-2-ol] belongs 70 nM; to `Oc1cc2c(c(-c3ncc4c(N5C[C@H]6CC[C@@H](C5)N6)nc(OC[C@@]56CCCN5C[C@H](F)C6)nc4c3F)c1)CC1(CC1)C2` [Example 300, 4′-(4-((1R,5S)-3,8-diazabicyclo[3.2.1]octan-3-yl)-8-fluoro-2-(((2R,7aS)-2-fluorotetrahydro-1H-pyrrolizin-7a(5H)-yl)methoxy)pyrido[4,3-d]pyrimidin-7-yl)-1′,3′-dihydrospiro[cyclopropane-1,2′-inden]-6′-ol], 177 nM.

For the molecule `CCc1c(F)ccc2cc(O)cc(N3CCc4c(nc(OC[C@]56CCCN5[C@@H](COC(=O)N(C)C)CC6)nc4N4C[C@H]5CC[C@@H](C4)N5)C3)c12` [Example 210, ((3R,7aR)-7a-(((4-((1R,5S)-3,8-diazabicyclo[3.2.1]octan-3-yl)-7-(8-ethyl-7-fluoro-3-hydroxynaphthalen-1-yl)-5,6,7,8-tetrahydropyrido[3,4-d]pyrimidin-2-yl)oxy)methyl)hexahydro-1H-pyrrolizin-3-yl)methyl dimethylcarbamate], the IC50 came to 65 nM.

With `CCc1c(F)ccc2cc(O)cc(-c3ncc4c(C5C[C@H]6CC[C@@H](C5)N6)nc(OC[C@@]56CCCN5C[C@H](F)C6)nc4c3F)c12` (stereo partly drawn) [Example 80, 4-(4-((1R,5S)-8-azabicyclo[3.2.1]octan-3-yl)-8-fluoro-2-(((2R,7aS)-2-fluorotetrahydro-1H-pyrrolizin-7a(5H)-yl)methoxy)pyrido[4,3-d]pyrimidin-7-yl)-5-ethyl-6-fluoronaphthalen-2-ol], the IC50 was above 2500 nM.

For `[O-][S+]1CCc2cc(O)cc(-c3ncc4c(N5C[C@H]6CC[C@@H](C5)N6)nc(OC[C@@]56CCCN5C[C@H](F)C6)nc4c3F)c21` (stereo partly drawn) [Example 252, 7-(4-((1R,5S)-3,8-diazabicyclo[3.2.1]octan-3-yl)-8-fluoro-2-(((2R,7aS)-2-fluorotetrahydro-1H-pyrrolizin-7a(5H)-yl)methoxy)pyrido[4,3-d]pyrimidin-7-yl)-5-hydroxy-2,3-dihydrobenzo[b]thiophene 1-oxide], the IC50 is above 2500 nM. As for `Oc1cc(N2CCc3c(nc(OC[C@@]45CCCN4C[C@H](F)C5)nc3N3C[C@H]4CC[C@@H](C3)N4)C2)c2c(Cl)c(F)ccc2c1` [Example 208, 4-(4-((1R,5S)-3,8-diazabicyclo[3.2.1]octan-3-yl)-2-(((2R,7aS)-2-fluorotetrahydro-1H-pyrrolizin-7a(5H)-yl)methoxy)-5,8-dihydropyrido[3,4-d]pyrimidin-7(6H)-yl)-5-chloro-6-fluoronaphthalen-2-ol], the IC50 is 20 nM. On the same count and under the same terms, then `C#Cc1c(F)ccc2cc(O)cc(-c3ccc4c(N5CCC(N)C5)nc(OC[C@@]56CCCN5C[C@H](F)C6)nc4c3F)c12` (stereo partly drawn) [Example 111, 4-(4-(3-aminopyrrolidin-1-yl)-8-fluoro-2-(((2R,7aS)-2-fluorotetrahydro-1H-pyrrolizin-7a(5H)-yl)methoxy)quinazolin-7-yl)-5-ethynyl-6-fluoronaphthalen-2-ol], with above 2500 nM. As to `C#Cc1c(F)ccc2cc(O)cc(-c3ncc4c(N5C[C@H]6CC[C@@H](C5)N6)nc(OCC56CCN(C)C5COC6)nc4c3F)c12` (stereo partly drawn) [Example 75, 4-(4-((1R,5S)-3,8-diazabicyclo[3.2.1]octan-3-yl)-8-fluoro-2-((1-methyltetrahydro-1H-furo[3,4-b]pyrrol-3a(4H)-yl)methoxy)pyrido[4,3-d]pyrimidin-7-yl)-5-ethynyl-6-fluoronaphthalen-2-ol], the IC50 is above 2500 nM. For the molecule `C#Cc1cccc2cc(O)cc(-c3ncc4c(N5CC6CCC(C5)C6O)nc(OC[C@@]56CCCN5C[C@H](F)C6)nc4c3F)c12` (stereo partly drawn) [Example 61, (1R,5S,8R)-3-(7-(8-ethynyl-3-hydroxynaphthalen-1-yl)-8-fluoro-2-(((2R, 7aS)-2-fluorotetrahydro-1H-pyrrolizin-7a(5H)-yl)methoxy)pyrido[4,3-d]pyrimidin-4-yl)-3-azabicyclo[3.2.1] octan-8-ol], the concentration for half-maximal inhibition (IC50) is above 2500 nM. Turning to `C#Cc1c(F)ccc2cc(O)cc(-c3ncc4c(N5C[C@H]6CC[C@@H](C5)N6)nc(OC[C@@]56CCCN5C[C@H](F)C6)nc4c3OCC(F)(F)F)c12` [Example 333, 4-(4-((1R,5S)-3,8-diazabicyclo[3.2.1]octan-3-yl)-2-(((2R,7aS)-2-fluorotetrahydro-1H-pyrrolizin-7a(5H)-yl)methoxy)-8-(2,2,2-trifluoroethoxy)pyrido[4,3-d]pyrimidin-7-yl)-5-ethynyl-6-fluoronaphthalen-2-ol], the IC50 was 455 nM. Same read-out and setting: to `C#Cc1cccc2cc(O)cc(-c3ccc4c(N5C[C@H]6CC[C@@H](C5)N6)c(C#N)c(OC[C@@]56CCCN5C[C@H](F)C6)nc4c3F)c12` [Example 182, 4-((1R,5S)-3,8-diazabicyclo[3.2.1]octan-3-yl)-7-(8-ethynyl-3-hydroxynaphthalen-1-yl)-8-fluoro-2-(((2R,7aS)-2-fluorotetrahydro-1H-pyrrolizin-7a(5H)-yl)methoxy)quinoline-3-carbonitrile] belongs 533 nM; to `N#Cc1c(OC[C@@]23CCCN2C[C@H](F)C3)nc2c(F)c(-c3cc(O)cc4ccc(F)c(F)c34)ncc2c1N1C[C@H]2CC[C@@H](C1)N2` [Example 193, 4-((1R,5S)-3,8-diazabicyclo[3.2.1]octan-3-yl)-7-(7,8-difluoro-3-hydroxynaphthalen-1-yl)-8-fluoro-2-(((2R,7aS)-2-fluorotetrahydro-1H-pyrrolizin-7a(5H)-yl)methoxy)-1,6-naphthyridine-3-carbonitrile], 125 nM. As to `Oc1cc(-c2ccc3c(N4C[C@H]5CC[C@@H](C4)N5)nc(OC[C@@]45CCCN4C[C@H](F)C5)nc3n2)c2c(F)cccc2c1` [Example 143, 4-(4-((1R,5S)-3,8-diazabicyclo[3.2.1]octan-3-yl)-2-(((2R,7aS)-2-fluorotetrahydro-1H-pyrrolizin-7a(5H)-yl)methoxy)pyrido[2,3-d]pyrimidin-7-yl)-5-fluoronaphthalen-2-ol], the IC50 was above 2500 nM. Take `C#Cc1cccc2cc(O)cc(-c3ccc4c(N5C[C@H]6CC[C@@H](C5)C6(F)F)nc(OC[C@@]56CCCN5C[C@H](F)C6)nc4c3F)c12` [Example 121, 4-(4-((1R,5S)-8,8-difluoro-3-azabicyclo [3.2.1]octan-3-yl)-8-fluoro-2-(((2R,7aS)-2-fluorotetrahydro-1H-pyrrolizin-7a(5H)-yl)methoxy)quinazolin-7-yl)-5-ethynylnaphthalen-2-ol]: the IC50 was above 2500 nM.
